Laboratory results as given in article PMC7970697, “Inhibition and Induction by Poziotinib of Different Rat Cytochrome P450 Enzymes In Vivo and in an In Vitro Cocktail Method” (Frontiers in Pharmacology, 2021).

Experiment: in vivo
Settings: for MRT last: MRT(0–t); for MRT inf: MRT(0–∞); for half-life: t1/2z; for CL/F: CLz/F; for Vd/F: Vz/F
Procedure: Samples were analyzed by a UPLC-MS/MS system equipped with a triple quadrupole mass spectrometer (Waters Corp., Milford, MA, United States) and Acquity UPLC BEH C18 column (1.7 μm, 2.1 × 50 mm) at 40°C. The mobile phase consisted of acetonitrile (A) and 0.1% formic acid (B) with a linear gradient elution at 0.4 ml/min for 3 min.
Twelve male Sprague-Dawley rats (230 ± 20 g) were randomly divided into treated and control groups, with 6 in each group. […] The supernatant was mixed with 200 μL of acetonitrile and 20 μL of 0.5 μg/ml diazepam (IS), vortexed for 30 s, centrifuged at 13,000 rpm for 5 min, and the supernatant was injected into the UPLC-MS/MS system for analysis.
Pharmacokinetic parameters were calculated using DAS software (Version 3.2.8). SPSS software (version 16.0; SPSS Inc., Chicago, IL, United States) was used to analyze the significance of differences between the main pharmacokinetic parameters. p < 0.05 was considered statistically significant. GraphPad (version 8.0; GraphPad Software Inc., San Diego, CA, United States) was used to calculate IC50 and plot the plasma concentration-time curves and inhibition plots (type of inhibition, time- and concentration-dependence).

[1] = male, Sprague-Dawley, rat, in vivo, po, 10 mg/kg
[2] = male, Sprague-Dawley, rat, in vivo, po, 10 mg/kg, Tmax
[3] = male, Sprague-Dawley, rat, plasma, po, 10 mg/kg
[4] = male, Sprague-Dawley, rat, plasma, po, 10 mg/kg, Control group: oral probe cocktail only (10 mg/kg; tolbutamide 1 mg/kg), rats, n = 6
[5] = male, Sprague-Dawley, rat, plasma, po, 10 mg/kg, Treated group: oral probe cocktail (10 mg/kg; tolbutamide 1 mg/kg) after 7 days oral poziotinib 5 mg/kg, rats, n = 6
[6] = male, Sprague-Dawley, rat, plasma, po, 10 mg/kg, Cmax, Treated group: oral probe cocktail (10 mg/kg; tolbutamide 1 mg/kg) after 7 days oral poziotinib 5 mg/kg, rats, n = 6
[7] = rats, poziotinib 5 mg/kg 7 days vs probes only
[8] = rats, poziotinib 5 mg/kg 7 days vs probes only (Discussion)
[9] = male, Sprague-Dawley, rat, in vivo, po, Control group: oral probe cocktail only (10 mg/kg; tolbutamide 1 mg/kg), rats, n = 6
[10] = male, Sprague-Dawley, rat, in vivo, po, Treated group: oral probe cocktail (10 mg/kg; tolbutamide 1 mg/kg) after 7 days oral poziotinib 5 mg/kg, rats, n = 6
[11] = male, Sprague-Dawley, rat, in vivo, po, 10 mg/kg, Control group: oral probe cocktail only (10 mg/kg; tolbutamide 1 mg/kg), rats, n = 6
[12] = male, Sprague-Dawley, rat, in vivo, po, 10 mg/kg, Treated group: oral probe cocktail (10 mg/kg; tolbutamide 1 mg/kg) after 7 days oral poziotinib 5 mg/kg, rats, n = 6

With `CC(NC(C)(C)C)C(=O)c1cccc(Cl)c1` (stereo not shown) [Bupropion] the AUC(0-t) [1] was 405 ± 87.3 ng·h/mL, the “AUC(0–∞)” value [1] was 421.07 ± 94.21 ng·h/mL and the “MRT(0–t)” value [1] was 2.37 ± 0.53 h. For the same compound, the “MRT(0–∞)” value [1] was 2.87 ± 1.15 h, the Tmax [1] was 0.46 ± 0.29 h and the t1/2z [1] was 2.51 ± 1.34 h. The AUC(0-inf) [1] was 613 ± 130 ng·h/mL, the MRT last [1] was 3.33 ± 0.84 h and the MRT inf [1] was 4.34 ± 1.58 h. The Tmax [2] was 0.75 ± 0.27 h, the half-life [1] was 3.35 ± 1.21 h and the AUC(0-t) [3] was 565 ± 92.5 ng·h/mL. For the same compound, the CL/F [4] was 412 mL/min/kg, the CL/F [5] was 281 mL/min/kg and the Cmax (male, Sprague-Dawley, rat, plasma, po, 10 mg/kg, Cmax, Control group: oral probe cocktail only (10 mg/kg; tolbutamide 1 mg/kg), rats, n = 6) was 170 ± 60.1 ng/mL. For the same compound, the Cmax [6] was 173 ± 60.8 ng/mL, the Vd/F [4] was 85.4 ± 37.7 L/kg and the Vd/F [5] was 81.8 ± 38.3 L/kg. For the same compound, the “AUC(0–t) fold higher in treated than control group” value [7] was 1.39 fold, the “AUC(0–∞) fold higher in treated than control group” value [7] was 1.46 fold and the “CLz/F fold lower in treated than control group” value [7] was 1.47 fold. For the same compound, the “MRT(0–t) fold higher in treated than control group” value [7] was 1.41 fold, the “Tmax fold higher in treated than control group” value [7] was 1.63 fold and the “Vz/F fold lower in treated than control group” value [7] was 1.04 fold. For the same compound, the “AUC(0–t) of treated group as fold of control group value” [8] was 1.40 fold and the “CLz/F of treated group as fold of control group value” [8] was 0.68 fold.

With `COc1ccc2c(c1)[C@]13CCCC[C@@H]1[C@H](C2)N(C)CC3` [Dextromethorphan] the AUC(0-t) (male, Sprague-Dawley, rat, in vivo, po, AUC(0–t), Control group: oral probe cocktail only (10 mg/kg; tolbutamide 1 mg/kg), rats, n = 6) was 575 ± 77.7 ng·h/mL, the AUC(0-t) (male, Sprague-Dawley, rat, in vivo, po, AUC(0–t), Treated group: oral probe cocktail (10 mg/kg; tolbutamide 1 mg/kg) after 7 days oral poziotinib 5 mg/kg, rats, n = 6) was 640 ± 197 ng·h/mL and the AUC(0-inf) [9] was 586 ± 79.3 ng·h/mL. The AUC(0-inf) [10] was 722 ± 231 ng·h/mL, the CL/F [9] was 289 mL/min/kg and the CL/F [10] was 250 mL/min/kg. For the same compound, the Cmax (male, Sprague-Dawley, rat, in vivo, po, Cmax, Control group: oral probe cocktail only (10 mg/kg; tolbutamide 1 mg/kg), rats, n = 6) was 152 ± 57.7 ng/mL, the Cmax (male, Sprague-Dawley, rat, in vivo, po, Cmax, Treated group: oral probe cocktail (10 mg/kg; tolbutamide 1 mg/kg) after 7 days oral poziotinib 5 mg/kg, rats, n = 6) was 153 ± 42.3 ng/mL and the MRT last [9] was 3.12 ± 0.37 h. For the same compound, the MRT last [10] was 3.54 ± 0.51 h, the MRT inf [9] was 3.35 ± 0.47 h and the MRT inf [10] was 5.19 ± 2.68 h. For the same compound, the Tmax (male, Sprague-Dawley, rat, in vivo, po, Tmax, Control group: oral probe cocktail only (10 mg/kg; tolbutamide 1 mg/kg), rats, n = 6) was 1.04 ± 0.56 h, the Tmax (male, Sprague-Dawley, rat, in vivo, po, Tmax, Treated group: oral probe cocktail (10 mg/kg; tolbutamide 1 mg/kg) after 7 days oral poziotinib 5 mg/kg, rats, n = 6) was 1.58 ± 0.92 h and the Vd/F [9] was 49 ± 10.7 L/kg. It also gave a Vd/F [10] of 75.5 ± 33.1 L/kg, a half-life [9] of 1.98 ± 0.43 h and a half-life [10] of 3.72 ± 2.09 h. For the same compound, the “difference in main pharmacokinetic parameters between treated and control group (in words)” value [7] was “no significant differences”.

`Cc1ncc2n1-c1ccc(Cl)cc1C(c1ccccc1F)=NC2` [Midazolam] showed an AUC(0-t) (male, Sprague-Dawley, rat, in vivo, po, 10 mg/kg, AUC(0–t), Control group: oral probe cocktail only (10 mg/kg; tolbutamide 1 mg/kg), rats, n = 6) of 1350 ng·h/mL, an AUC(0-t) (male, Sprague-Dawley, rat, in vivo, po, 10 mg/kg, AUC(0–t), Treated group: oral probe cocktail (10 mg/kg; tolbutamide 1 mg/kg) after 7 days oral poziotinib 5 mg/kg, rats, n = 6) of 1280 ng·h/mL and an AUC(0-inf) [11] of 1360 ng·h/mL. The AUC(0-inf) [12] was 1310 ng·h/mL, the CL/F [11] was 128 mL/min/kg and the CL/F [12] was 139 mL/min/kg. The Cmax (male, Sprague-Dawley, rat, in vivo, po, 10 mg/kg, Cmax, Control group: oral probe cocktail only (10 mg/kg; tolbutamide 1 mg/kg), rats, n = 6) was 868 ± 251 ng/mL, the Cmax (male, Sprague-Dawley, rat, in vivo, po, 10 mg/kg, Cmax, Treated group: oral probe cocktail (10 mg/kg; tolbutamide 1 mg/kg) after 7 days oral poziotinib 5 mg/kg, rats, n = 6) was 582 ± 296 ng/mL and the MRT last [11] was 1.58 ± 0.23 h. For the same compound, the MRT last [12] was 2.01 ± 0.43 h, the MRT inf [11] was 1.62 ± 0.24 h and the MRT inf [12] was 2.44 ± 1.12 h. For the same compound, the Tmax (male, Sprague-Dawley, rat, in vivo, po, 10 mg/kg, Tmax, Control group: oral probe cocktail only (10 mg/kg; tolbutamide 1 mg/kg), rats, n = 6) was 0.33 ± 0.13 h, the Tmax (male, Sprague-Dawley, rat, in vivo, po, 10 mg/kg, Tmax, Treated group: oral probe cocktail (10 mg/kg; tolbutamide 1 mg/kg) after 7 days oral poziotinib 5 mg/kg, rats, n = 6) was 0.58 ± 0.34 h and the Vd/F [11] was 18.6 ± 5.95 L/kg. The Vd/F [12] was 32.8 ± 20.8 L/kg, the half-life [11] was 1.7 ± 0.55 h and the half-life [12] was 2.67 ± 1.39 h. The “difference in main pharmacokinetic parameters between treated and control group (in words)” value [7] was “not significant”.

In the case of `CCOc1ccc(NC(C)=O)cc1` [Phenacetin], the Cmax (Control group: oral probe cocktail only (10 mg/kg; tolbutamide 1 mg/kg), rats, n = 6) is reported as 2,869.22 ± 783.32 µg/L, the AUC(0-t) [1] is reported as 6320 ng·h/mL and the “MRT(0–t)” value [1] is reported as 1.46 ± 0.22 h. The Tmax [1] was 0.75 ± 0.27 h, the t1/2z [1] was 0.55 ± 0.15 h and the MRT last [1] was 1.41 ± 0.13 h. For the same compound, the MRT inf [1] was 1.46 ± 0.15 h, the Tmax [2] was 0.54 ± 0.25 h and the half-life [1] was 0.8 ± 0.12 h. For the same compound, the AUC(0-t) [3] was 2770 ng·h/mL, the CL/F [4] was 30.7 mL/min/kg and the CL/F [5] was 66.5 mL/min/kg. It also gave a Cmax [6] of 1490 ng/mL, a Vd/F [4] of 1.57 ± 0.9 L/kg and a Vd/F [5] of 4.77 ± 2.26 L/kg. For the same compound, the “AUC (0–t) reduced by, treated vs control group” value [7] was 56.08%, the “AUC (0–∞) reduced by, treated vs control group” value [7] was 55.81% and the “CLz/F increased by, treated vs control group” value [7] was 116.85%. For the same compound, the “Cmax reduced by, treated vs control group” value [7] was 48.06%, the “Vz/F increased by, treated vs control group” value [7] was 203.82% and the “t1/2 increased by, treated vs control group” value [7] was 45.45%.
